Data: US10053721B2, “Antimicrobial resistance status determination device and method” (bioMerieux, Inc., priority 2015, dated 2018)
Like-named read-outs stand apart in the source and are kept apart here.

What was measured:
Type in all cases: cell-based
S. aureus strains = test: Methicillin-resistant Staphylococcus aureus (MRSA) assay, optical density growth curves; details: 6 μg/mL cefoxitin
Procedure: The BacT/ALERT® SA bottles were inoculated as described in Example A. The positive broth dilution for the MRSA Assay was performed as follows: broth containing a S. aureus isolate was diluted 1:20 into glass tubes containing 9.0 mL of pre-warmed CAMBH, 0.05% saponin and ±6 μg/mL cefoxitin. Ten (10) S. aureus strains representing diverse phenotypes were tested (5 resistant and 5 sensitive).
(§1) Each strain was sub-cultured without the drug as a growth control. The resistance assay tubes (15 mL tubes fitted with septum screw-caps for diluting and sampling) were incubated in a custom-built, heated, rocking optical density unit, placed within a resistance module, and time-dependent changes in the optical at 660 nm of each culture tube were measured every 45 seconds for periods of up to 12 hours. To maximize microbial growth and minimize measurement noise, tubes were rocked between +/−18 degrees from horizontal at 36 cycles/min for 30 seconds, then returned to the upright position for 15 seconds before an optical density reading was taken.
To detect MRSA directly from positive blood cultures, 10 broth samples containing S. aureus strains representing diverse phenotypes were sub-cultured for up to 12 hours with and without 6 μg/mL of cefoxitin (5 resistant and 5 sensitive strains).
To better discriminate microbial growth from background increases in media optical density, slopes of the growth curves were calculated and plotted (FIGS. 7B, 7D, and 7F).

[1] = system: K. pneumoniae or E. coli isolates; test: Carbapenem-resistant Enterobacteriaceae (CRE) assay, optical density at 660 nm over time; details: 4 ug/mL imipenem; 8 strains harboring carbapenemase genes
Procedure: BacT/ALERT® SA bottles were inoculated with 10 mL of SPS-anticoagulated normal human blood and seeded with <100 CFU of S. aureus, E. faecalis, E. faecium, E. coli and K. pneumoniae isolates. Within 15 minutes of flagging positive, the bottles were manually unloaded and either tested immediately or kept on ice until tested. If chilled, a positive bottle was warmed in a 36° C. water bath for 15-20 minutes before removing samples. The positive broth dilutions were performed manually. […]
as §1, with “taken. […]” for “taken.”

E. faecalis strains = test: Vancomycin-resistant enterococci (VRE) assay, optical density growth curves
Procedure: (§2) The BacT/ALERT® SA bottles were inoculated as described in Example A. The positive broth dilution for the […] was performed as follows: broth containing E. faecium or E. faecalis isolates was spun for 10 seconds @10,600 g in a 1.5 mL microcentrifuge tube to sediment red blood cells (RBC). One (1.0) mL of the RBC depleted supernatant was recovered and diluted into 4.0 mL of pre-warmed BacT/ALERT® SA media±6 μg/mL vancomycin. Thirty-one (31) E. faecium and 7 E. faecalis strains were tested (23 resistant and 15 sensitive).
(§3) To rapidly detect VRE in positive blood cultures, 38 broth samples containing E. faecium and E. faecalis strains were depleted of red blood cells and then diluted 1:5 in BacT/ALERT® SA blood culture media with and without 6 μg/mL of vancomycin (23 resistant and 15 sensitive strains).

E. faecium strains = test: as above; details: 6 μg/mL vancomycin; all 17 resistant E. faecium strains
Procedure: as §2, §3

[2] = system: van B containing E. faecalis strains; test: MIC of van B containing E. faecalis strains

With CO[C@@]1(NC(=O)Cc2cccs2)C(=O)N2C(C(=O)O)=C(COC(N)=O)CS[C@@H]21 [cefoxitin] the “time to growth in cefoxitin media” value (S. aureus strains; 3 of the 5 MRSA strains) was ≤ 2 h, the “growth in cefoxitin media” value (S. aureus strains; 5 sensitive S. aureus strains, by 12 hours) was “failed to grow” and the “slopes of the growth curves” value (S. aureus strains; 5 sensitive strains, after 60 min equilibration, over 720 min) was “decreasing or flat slopes”. The “time to growth in cefoxitin media” value (S. aureus strains; Positive Control MRSA strain ATCC 43300) was ≤ 2.5 h and the “time to growth in cefoxitin media” value (S. aureus strains; weakly resistant MRSA strain (E-test MIC=16 ug/mL)) was ≤ 4.5 h.
For C[C@@H](O)[C@H]1C(=O)N2C(C(=O)O)=C(SCCN=CN)C[C@H]12 [imipenem], the “time to growth in the presence of imipenem” value [1] was ≤ 2 h.
In the case of CN[C@H](CC(C)C)C(=O)N[C@H]1C(=O)N[C@@H](CC(N)=O)C(=O)N[C@H]2C(=O)N[C@H]3C(=O)N[C@H](C(=O)N[C@H](C(=O)O)c4cc(O)cc(O)c4-c4cc3ccc4O)[C@H](O)c3ccc(c(Cl)c3)Oc3cc2cc(c3O[C@@H]2O[C@H](CO)[C@@H](O)[C@H](O)[C@H]2O[C@H]2C[C@](C)(N)[C@H](O)[C@H](C)O2)Oc2ccc(cc2Cl)[C@H]1O [vancomycin], the “time to detection of growth with vancomycin” value (from here on “time to detection of growth”) (E. faecalis strains; 6 μg/mL vancomycin, three low MIC van B containing E. faecalis strains) is reported as 3 to 4 h, the “time to detection of growth” value (E. faecalis strains; delayed van B isolates, starting subculture optical density raised from <0.10 to 0.25-0.45, data not shown) is reported as 2 to 2.5 h and the “time to detection of growth” value (E. faecium strains) is reported as ≤ 2 h. The MIC ([2]; CLSI Positive Control strain ATCC 51299, in µg/mL) was 16-24 and the MIC ([2]; Enterococcus faecalis, three van B containing E. faecalis strains, read-out: MIC) was 16 to 64 µg/mL.
